# Reference: ChEMBL document CHEMBL1135305, “Enantiospecific, selective cyclooxygenase-2 inhibitors” (Bioorg Med Chem Lett, 2002)
# Columns and labels:
# [1] = target: T1, Prostaglandin G/H synthase 1 (Ovis aries, UniProt P05979)
# T1 sequence (P05979 whole entry): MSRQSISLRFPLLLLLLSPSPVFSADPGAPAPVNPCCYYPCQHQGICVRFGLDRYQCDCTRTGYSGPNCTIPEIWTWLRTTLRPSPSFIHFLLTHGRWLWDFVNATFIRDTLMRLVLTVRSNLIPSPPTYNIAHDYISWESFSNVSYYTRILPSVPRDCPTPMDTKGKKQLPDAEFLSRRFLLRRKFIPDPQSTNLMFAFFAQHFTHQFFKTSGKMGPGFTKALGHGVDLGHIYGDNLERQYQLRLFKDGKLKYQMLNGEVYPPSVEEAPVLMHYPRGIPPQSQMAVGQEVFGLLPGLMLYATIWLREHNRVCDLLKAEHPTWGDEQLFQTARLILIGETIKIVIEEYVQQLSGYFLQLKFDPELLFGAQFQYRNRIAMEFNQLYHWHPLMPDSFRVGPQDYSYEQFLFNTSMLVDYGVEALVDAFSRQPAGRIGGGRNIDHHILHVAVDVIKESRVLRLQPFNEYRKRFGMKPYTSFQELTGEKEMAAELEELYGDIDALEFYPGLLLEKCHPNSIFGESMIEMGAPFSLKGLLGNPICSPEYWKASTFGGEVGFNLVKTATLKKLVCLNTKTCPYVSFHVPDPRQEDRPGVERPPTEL
# Description: Inhibitory concentration against prostaglandin G/H synthase 1
# [2] = target: T2, Prostaglandin G/H synthase 2 (Homo sapiens, UniProt P35354); test: Inhibitory concentration against human prostaglandin G/H synthase 2
# T2 sequence (P35354 whole entry): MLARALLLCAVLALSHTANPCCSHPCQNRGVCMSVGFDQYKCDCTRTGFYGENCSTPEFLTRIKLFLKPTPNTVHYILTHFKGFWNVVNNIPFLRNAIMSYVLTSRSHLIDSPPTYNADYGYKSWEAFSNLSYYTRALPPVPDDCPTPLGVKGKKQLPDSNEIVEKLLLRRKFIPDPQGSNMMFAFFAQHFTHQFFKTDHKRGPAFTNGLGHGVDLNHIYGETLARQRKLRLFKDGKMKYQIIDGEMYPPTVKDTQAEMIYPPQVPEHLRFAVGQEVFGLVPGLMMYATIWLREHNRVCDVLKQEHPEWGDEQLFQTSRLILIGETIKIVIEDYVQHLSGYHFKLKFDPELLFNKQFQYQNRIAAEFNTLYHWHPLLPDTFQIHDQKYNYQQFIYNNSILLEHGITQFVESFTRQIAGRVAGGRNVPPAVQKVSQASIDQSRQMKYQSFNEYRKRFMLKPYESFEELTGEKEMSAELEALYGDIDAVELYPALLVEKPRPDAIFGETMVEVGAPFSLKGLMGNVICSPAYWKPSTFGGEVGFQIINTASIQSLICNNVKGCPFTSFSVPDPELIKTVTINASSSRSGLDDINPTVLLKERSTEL
# [3] = target: Prostaglandin G/H synthase 2 (Mus musculus, UniProt Q05769, S105V/Y101L); test: Inhibitory concentration against Y115L/S119V mutant murine Prostaglandin G/H synthase 2
# Sequence of Prostaglandin G/H synthase 2 (Mus musculus, UniProt Q05769, S105V/Y101L) (Q05769 18-604 Y101L/S105V limits assumed): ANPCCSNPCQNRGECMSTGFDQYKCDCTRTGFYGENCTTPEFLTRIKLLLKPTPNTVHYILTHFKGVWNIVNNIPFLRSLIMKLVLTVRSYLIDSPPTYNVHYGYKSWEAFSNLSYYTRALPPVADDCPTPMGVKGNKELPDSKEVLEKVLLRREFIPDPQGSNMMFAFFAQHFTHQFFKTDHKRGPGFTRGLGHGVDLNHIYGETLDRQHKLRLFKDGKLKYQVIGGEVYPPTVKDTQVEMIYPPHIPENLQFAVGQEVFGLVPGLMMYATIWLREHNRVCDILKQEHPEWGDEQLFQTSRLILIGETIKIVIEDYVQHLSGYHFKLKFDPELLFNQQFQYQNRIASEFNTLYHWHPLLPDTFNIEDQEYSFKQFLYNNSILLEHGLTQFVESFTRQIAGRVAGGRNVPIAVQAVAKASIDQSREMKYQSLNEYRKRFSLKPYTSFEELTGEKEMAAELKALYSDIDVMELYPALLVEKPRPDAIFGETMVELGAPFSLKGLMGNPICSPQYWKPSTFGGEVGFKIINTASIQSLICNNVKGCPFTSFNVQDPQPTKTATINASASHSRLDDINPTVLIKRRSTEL
# [4] = target: T3, Prostaglandin G/H synthase 2 (Mus musculus, UniProt Q05769); test: Inhibitory concentration against V5231, mutant murine Prostaglandin G/H synthase 2
# [5] = target: T3, Prostaglandin G/H synthase 2; test: Inhibitory concentration against VRV, mutant murine Prostaglandin G/H synthase 2
# [6] = target: Prostaglandin G/H synthase 2 (Mus musculus, UniProt Q05769, S105V); test: Inhibitory concentration against S119V mutant murine Prostaglandin G/H synthase 2
# Sequence of Prostaglandin G/H synthase 2 (Mus musculus, UniProt Q05769, S105V) (Q05769 18-604 S105V limits assumed): as the sequence (Q05769 18-604 Y101L/S105V limits assumed) above, with L84Y counted along it
# [7] = target: Prostaglandin G/H synthase 2 (Mus musculus, UniProt Q05769, Y101L); test: Inhibitory concentration against Y115L mutant murine Prostaglandin G/H synthase 2
# Sequence of Prostaglandin G/H synthase 2 (Mus musculus, UniProt Q05769, Y101L) (Q05769 18-604 Y101L limits assumed): as the sequence (Q05769 18-604 Y101L/S105V limits assumed) above, with V88S counted along it
# [8] = target: T3, Prostaglandin G/H synthase 2; test: Inhibitory concentration against V891 mutant murine Prostaglandin G/H synthase 2
# [9] = target: Prostaglandin G/H synthase 2 (Mus musculus, UniProt Q05769, F343L); test: Inhibitory concentration against F357L mutant murine Prostaglandin G/H synthase 2
# Sequence of Prostaglandin G/H synthase 2 (Mus musculus, UniProt Q05769, F343L) (Q05769 18-604 F343L limits assumed): as the sequence (Q05769 18-604 Y101L/S105V limits assumed) above, with L84Y, V88S, F326L counted along it
# [10] = target: Prostaglandin G/H synthase 2 (Mus musculus, UniProt Q05769, R106Q); test: Inhibitory concentration against R120Q mutant murine Prostaglandin G/H synthase 2
# Sequence of Prostaglandin G/H synthase 2 (Mus musculus, UniProt Q05769, R106Q) (Q05769 18-604 R106Q limits assumed): as the sequence (Q05769 18-604 Y101L/S105V limits assumed) above, with L84Y, V88S, R89Q counted along it
# [11] = target: Prostaglandin G/H synthase 2 (Mus musculus, UniProt Q05769, E510L); test: Inhibitory concentration against E524L mutant murine Prostaglandin G/H synthase 2
# Sequence of Prostaglandin G/H synthase 2 (Mus musculus, UniProt Q05769, E510L) (Q05769 18-604 E510L limits assumed): as the sequence (Q05769 18-604 Y101L/S105V limits assumed) above, with L84Y, V88S, E493L counted along it
# [12] = target: Prostaglandin G/H synthase 2 (Mus musculus, UniProt Q05769, S516A); test: Inhibitory concentration against S530A mutant murine Prostaglandin G/H synthase 2
# Sequence of Prostaglandin G/H synthase 2 (Mus musculus, UniProt Q05769, S516A) (Q05769 18-604 S516A limits assumed): as the sequence (Q05769 18-604 Y101L/S105V limits assumed) above, with L84Y, V88S, S499A counted along it
# [13] = target: Prostaglandin G/H synthase 2 (Mus musculus, UniProt Q05769, L489F); test: Inhibitory concentration against L503F mutant murine Prostaglandin G/H synthase 2
# Sequence of Prostaglandin G/H synthase 2 (Mus musculus, UniProt Q05769, L489F) (Q05769 18-604 L489F limits assumed): as the sequence (Q05769 18-604 Y101L/S105V limits assumed) above, with L84Y, V88S, L472F counted along it
# [14] = target: Prostaglandin G/H synthase 2 (Mus musculus, UniProt Q05769, H122N); test: Inhibitory concentration against H122N mutant murine Prostaglandin G/H synthase 2
# [15] = target: Prostaglandin G/H synthase 2 (Mus musculus, UniProt Q05769, I92L); test: Inhibitory concentration against I92L mutant murine Prostaglandin G/H synthase 2
# [16] = target: T4, Prostaglandin G/H synthase 2 (Mus musculus, UniProt Q05769); test: Inhibitory concentration against wild type murine Prostaglandin G/H synthase 2
# T4 sequence (Q05769 whole entry): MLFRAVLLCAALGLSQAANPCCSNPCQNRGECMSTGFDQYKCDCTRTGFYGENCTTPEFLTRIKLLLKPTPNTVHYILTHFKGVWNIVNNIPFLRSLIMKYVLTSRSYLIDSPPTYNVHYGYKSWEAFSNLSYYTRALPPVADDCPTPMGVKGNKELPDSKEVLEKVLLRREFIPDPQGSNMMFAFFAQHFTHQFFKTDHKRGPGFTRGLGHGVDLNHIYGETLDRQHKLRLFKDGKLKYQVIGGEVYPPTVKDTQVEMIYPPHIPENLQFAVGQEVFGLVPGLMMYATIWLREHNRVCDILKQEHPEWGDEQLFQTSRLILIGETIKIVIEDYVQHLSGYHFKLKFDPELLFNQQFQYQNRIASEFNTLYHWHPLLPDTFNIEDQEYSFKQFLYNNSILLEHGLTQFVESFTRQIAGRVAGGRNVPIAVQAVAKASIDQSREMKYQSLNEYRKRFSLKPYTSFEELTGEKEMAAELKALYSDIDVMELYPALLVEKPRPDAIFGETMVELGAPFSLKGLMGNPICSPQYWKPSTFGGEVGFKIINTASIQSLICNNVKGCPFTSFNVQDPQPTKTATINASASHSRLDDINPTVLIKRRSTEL
# [17] = target: Prostaglandin G/H synthase 2 (Mus musculus, UniProt Q05769, R106A); test: Inhibitory concentration against R120A mutant murine Prostaglandin G/H synthase 2
# Sequence of Prostaglandin G/H synthase 2 (Mus musculus, UniProt Q05769, R106A) (Q05769 18-604 R106A limits assumed): as the sequence (Q05769 18-604 Y101L/S105V limits assumed) above, with L84Y, V88S, R89A counted along it
# [18] = target: T3, Prostaglandin G/H synthase 2; test: Inhibitory concentration against l503F mutant murine Prostaglandin G/H synthase 2
compound,measurement,setting,value
COc1ccc2c(c1)c(CC(=O)NN1CCC[C@H]1CO)c(C)n2C(=O)c1ccc(Cl)cc1,IC50,[1],> 80000 nM
same,IC50,[2],1800 nM
COc1ccc2c(c1)c(CC(=O)NN1CCC[C@@H]1CO)c(C)n2C(=O)c1ccc(Cl)cc1,IC50,[1],> 80000 nM
same,IC50,[2],1700 nM
COC[C@H](C)NC(=O)Cc1c(C)n(C(=O)c2ccc(Cl)cc2)c2ccc(OC)cc12,IC50,[1],> 60000 nM
same,IC50,[2],240 nM
COC[C@@H](C)NC(=O)Cc1c(C)n(C(=O)c2ccc(Cl)cc2)c2ccc(OC)cc12,IC50,[1],6800 nM
same,IC50,[2],140 nM
COc1ccc2c(c1)c(CC(=O)N[C@@H](CO)Cc1ccccc1)c(C)n2C(=O)c1ccc(Cl)cc1,IC50,[1],> 50000 nM
same,IC50,[2],220 nM
CCC(C)[C@@H](CO)NC(=O)Cc1c(C)n(C(=O)c2ccc(Cl)cc2)c2ccc(OC)cc12 (stereo not given in full),IC50,[1],480 nM
same,IC50,[2],110 nM
COc1ccc2c(c1)c(CC(=O)NCCCCO)c(C)n2C(=O)c1ccc(Cl)cc1,IC50,[1],86000 nM
same,IC50,[2],280 nM
COc1ccc2c(c1)c(CC(=O)NCCCCCO)c(C)n2C(=O)c1ccc(Cl)cc1,IC50,[1],> 83000 nM
same,IC50,[2],290 nM
COc1ccc2c(c1)c(CC(=O)N[C@H](C)CO)c(C)n2C(=O)c1ccc(Cl)cc1,IC50,[3],290 nM
same,IC50,[4],690 nM
same,IC50,[5],340 nM
same,IC50,[6],240 nM
same,IC50,[7],325 nM
same,IC50,[8],250 nM
same,IC50,[9],250 nM
same,IC50,[10],90 nM
same,IC50,[11],560 nM
same,IC50,[12],570 nM
same,IC50,[13],300 nM
same,IC50,[14],690 nM
same,IC50,[1],33000 nM
same,IC50,[15],200 nM
same,IC50,[16],540 nM
same,IC50,[17],50 nM
same,IC50,[2],170 nM
CC[C@H](CO)NC(=O)Cc1c(C)n(C(=O)c2ccc(Cl)cc2)c2ccc(OC)cc12,IC50,[1],59000 nM
same,IC50,[2],100 nM
COc1ccc2c(c1)c(CC(=O)N[C@H](CO)C(C)C)c(C)n2C(=O)c1ccc(Cl)cc1,IC50,[1],400 nM
same,IC50,[2],370 nM
CC[C@@H](C)NC(=O)Cc1c(C)n(C(=O)c2ccc(Cl)cc2)c2ccc(OC)cc12,IC50,[1],180 nM
same,IC50,[2],130 nM
CC[C@H](C)NC(=O)Cc1c(C)n(C(=O)c2ccc(Cl)cc2)c2ccc(OC)cc12,IC50,[1],4700 nM
same,IC50,[2],110 nM
COc1ccc2c(c1)c(CC(=O)NC[C@H](C)O)c(C)n2C(=O)c1ccc(Cl)cc1,IC50,[1],32000 nM
same,IC50,[2],320 nM
COc1ccc2c(c1)c(CC(=O)NCCCO)c(C)n2C(=O)c1ccc(Cl)cc1,IC50,[1],64000 nM
same,IC50,[2],220 nM
COc1ccc2c(c1)c(CC(=O)N[C@@H](CO)c1ccccc1)c(C)n2C(=O)c1ccc(Cl)cc1,IC50,[1],47000 nM
same,IC50,[2],440 nM
COc1ccc2c(c1)c(CC(=O)N[C@H](CO)c1ccccc1)c(C)n2C(=O)c1ccc(Cl)cc1,IC50,[1],< 1300 nM
same,IC50,[2],85 nM
CC[C@@H](CO)NC(=O)Cc1c(C)n(C(=O)c2ccc(Cl)cc2)c2ccc(OC)cc12,IC50,[1],350 nM
same,IC50,[2],280 nM
COc1ccc2c(c1)c(CC(=O)N[C@H](CO)CC(C)C)c(C)n2C(=O)c1ccc(Cl)cc1,IC50,[1],< 3900 nM
same,IC50,[2],170 nM
COc1ccc2c(c1)c(CC(=O)N[C@H](CO)CCSC)c(C)n2C(=O)c1ccc(Cl)cc1,IC50,[1],2300 nM
same,IC50,[2],1000 nM
COc1ccc2c(c1)c(CC(=O)NCCCCCCO)c(C)n2C(=O)c1ccc(Cl)cc1,IC50,[1],> 63000 nM
same,IC50,[2],210 nM
COc1ccc2c(c1)c(CC(=O)NC[C@@H](C)O)c(C)n2C(=O)c1ccc(Cl)cc1,IC50,[1],52000 nM
same,IC50,[2],330 nM
COc1ccc2c(c1)c(CC(=O)N[C@@H](C)CO)c(C)n2C(=O)c1ccc(Cl)cc1,IC50,[3],210 nM
same,IC50,[4],220 nM
same,IC50,[5],110 nM
same,IC50,[6],200 nM
same,IC50,[7],390 nM
same,IC50,[8],85 nM
same,IC50,[9],250 nM
same,IC50,[10],75 nM
same,IC50,[11],220 nM
same,IC50,[18],160 nM
same,IC50,[12],150 nM
same,IC50,[14],300 nM
same,IC50,[1],590 nM
same,IC50,[15],200 nM
same,IC50,[16],170 nM
same,IC50,[17],60 nM
same,IC50,[2],270 nM
COc1ccc2c(c1)c(CC(=O)N[C@@H](CO)CC(C)C)c(C)n2C(=O)c1ccc(Cl)cc1,IC50,[1],> 63000 nM
same,IC50,[2],500 nM
COc1ccc2c(c1)c(CC(=O)N[C@@H](CO)C(C)C)c(C)n2C(=O)c1ccc(Cl)cc1,IC50,[1],> 63000 nM
same,IC50,[2],110 nM
COc1ccc2c(c1)c(CC(=O)NC[C@H](O)c1ccccc1)c(C)n2C(=O)c1ccc(Cl)cc1,IC50,[1],> 63000 nM
same,IC50,[2],210 nM
COc1ccc2c(c1)c(CC(=O)N[C@H](CO)Cc1ccccc1)c(C)n2C(=O)c1ccc(Cl)cc1,IC50,[1],< 3900 nM
same,IC50,[2],85 nM
COc1ccc2c(c1)c(CC(=O)N[C@@H](CO)CCSC)c(C)n2C(=O)c1ccc(Cl)cc1,IC50,[1],51000 nM
same,IC50,[2],250 nM
COc1ccc2c(c1)c(CC(=O)NC(C)(C)CO)c(C)n2C(=O)c1ccc(Cl)cc1,IC50,[1],800 nM
same,IC50,[2],190 nM
COc1ccc2c(c1)c(CC(=O)NC[C@@H](O)c1ccccc1)c(C)n2C(=O)c1ccc(Cl)cc1,IC50,[1],56000 nM
same,IC50,[2],47 nM
